Results as given in patent publication US11759461B2, “Small molecule inhibitors of cancer stem cells and mesenchymal cancer types” (The Scripps Research Institute, priority 2017, dated 2023).

How the values were obtained:
VIM [1] = molecular target: T1, VIM (Homo sapiens, UniProt P08670); test: Immunofluorescent analysis of VIM filamentous architecture in HUVECs; type: cell-based; conditions: one-hour treatment
T1 construct: endogenous in cells; host or cells: FOXC2-HMLER

VIM [2] = molecular target: T1, VIM; test: Western blotting / immunofluorescence of VIM protein status in FOXC2-HMLER cells; type: cell-based; conditions: FOXC2-HMLER cells, Western blotting
Description: Western blotting was performed essentially as described previously (M. J. Bollong et al. ACS Chem. Biol. 10 (2015) 2193-2198). Cells were collected by brief trypsinization and centrifugation at 500 g for 5 minutes. Cells were lysed by the addition of RIPA buffer with protease and phosphatase inhibitors (Roche). Lysates were incubated on ice for 30 minutes before eliminating insoluble protein content by centrifugation at 12,000 g for 5 minutes at 4° C. Protein concentrations were determined from absorbance values obtained by a Nanodrop instrument. Equal amounts of protein were then mixed with 2× loading buffer (100 mM TRIS-HCl, 1% SDS, 10% glycerol, 0.1% bromophenol blue 10%-mercaptoethanol) and exposed to 95° C. for 5 minutes. Protein was separated by SDS-PAGE using 4-12% Bis-Tris Gels (Invitrogen) and then transferred to PVDF membranes (Invitrogen) using semi-dry transfer. Membranes were blocked for 1 hour at room temperature in 5% non-fat dry milk in TBST (Tris buffered saline with 0.1% Tween 20). Membranes were incubated overnight with primary antibodies in blocking buffer overnight at the dilutions ranging from 1:500 to 1:2000. After 3 washes with TBST, membranes were then exposed to HRP-conjugated secondary antibodies (1:5000 in blocking buffer, Sigma) for one hour followed by one hour of additional washing with TBST. Relative protein content was visualized using film and SuperSignal West Dura Substrate. For VIM degradation blots, 20-60 μg of protein content was loaded per gel lane and the anti-VIM antibody V9 (ab8069) was used to blot for VIM protein content. Phospho-protein blots were performed as above with the exception that primary antibodies were incubated in 5% bovine serum albumin in TBST instead of milk.
We performed Western blotting analysis of FOXC2-HMLER cells treated for 24 hours with Compound 1 with commercially available antibodies targeting specific phosphorylated VIM species (P-S39, P-S56, P-S83).
In contrast, only a small fraction of cells undergoing mitosis stained positive for P-S56-VIM in DMSO-treated controls, consistent with previous reports identifying phosphorylation at S56 as a modification catalyzed by cyclin dependent kinase 1 (CDK1; FIG. 6) (T. Yamaguchi, T. et al., J. Cell Biol. 171 (2005) 431-436.

FOXC2-HMLER cells [3] = test: Confocal imaging of thymidine synced FOXC2-HMLER cells at metaphase; type: cell-based, human
Excerpt: Because Compound 1 induces a hyper-phosphorylated VIM phenotype, we sought to determine if Compound 1's engagement of VIM might interfere at an alternative stage of mitosis. We therefore performed time course confocal imaging studies of Compound 1 treated FOXC2-HMLER cells after their release from thymidine blocking-based cell cycle synchronization.
Compound 1 treatment also disrupted the ability of β-tubulin to faithfully form the fine spindle microtubules of the mitotic spindle, instead resulting in a compressed phenotype with radiating projections connecting unaligned chromosomes. To assess the uniqueness of this phenotype, we evaluated the metaphase phenotypes of other chemical inhibitors which have shown to alter mitotic progression. These included inhibitors of centromere-associated protein E (CENP-E, also called kinesin-7, GSK92395), kinesin spindle protein (KSP, also called Eg5, Ispinesib), polo like kinases (PLK1/2/3, BI2536), and aurora kinases (AURKA/B/C, VX-680).

FOXC2-HMLER cells [4] = test: Multinucleation of FOXC2-HMLER cells; type: cell-based, human; conditions: 250-500 nM, 24 hours

T1 sequence (P08670 whole entry): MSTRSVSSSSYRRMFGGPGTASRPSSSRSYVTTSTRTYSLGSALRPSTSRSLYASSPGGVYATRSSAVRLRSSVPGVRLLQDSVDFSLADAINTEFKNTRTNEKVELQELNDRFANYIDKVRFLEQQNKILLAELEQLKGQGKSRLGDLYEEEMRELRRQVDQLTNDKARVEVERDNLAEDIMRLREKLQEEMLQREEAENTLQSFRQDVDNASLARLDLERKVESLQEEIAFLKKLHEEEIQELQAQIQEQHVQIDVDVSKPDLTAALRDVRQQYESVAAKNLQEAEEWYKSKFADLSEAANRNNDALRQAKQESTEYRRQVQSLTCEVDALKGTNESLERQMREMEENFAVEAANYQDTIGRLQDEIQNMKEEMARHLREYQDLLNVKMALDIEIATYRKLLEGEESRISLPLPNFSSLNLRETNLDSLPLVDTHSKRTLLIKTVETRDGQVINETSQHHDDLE

lower molecular weight VIM degradation products (VIM [2]): dose-dependent accumulation
Structure (SMILES): CC1=C(CO)C(=O)O[C@@H]([C@@H](C)[C@H]2CC[C@H]3[C@@H]4C[C@H]5O[C@]56[C@@H](O)C=CC(=O)[C@]6(C)[C@H]4CC[C@]23C)C1 [WIF-A, Withaferin A, reference compound]
VIM filamentous architecture in HUVECs (VIM [1]): promoted the destruction of fine VIM-containing filamentous structures
chromosome alignment to the metaphase plate (FOXC2-HMLER cells [3]): unaligned chromosomes during metaphase
multinucleated FOXC2-HMLER cells (FOXC2-HMLER cells [4]): significant increase
